Results published in patent publication US20230331707A1, “PROGRAMMED CELL NECROSIS INHIBITOR, PREPARATION METHOD THEREFOR, AND USE THEREOF” (Shanghai Institute of Organic Chemistry, Chinese Academy of …, priority 2020, published 2023).
Read-outs that look alike come from different tables or passages of the source.

Columns and labels:
[1] = tested on: L929 cells; assay: Inhibition of TNF-induced programmed necrosis of L929 cells (Cell Titer-Glo viability); assay type: cell-based, mouse; conditions: Mus musculus, L929, L929 cells
Source text: (§1) The adopted biological assay protocol was: the effect of compounds on programmed necroptosis of TNF-induced FADD (Fas-Associated Death Domain) deficient Jurkat cells and L929 cells.
(§2) In order to verify the inhibitory effect of the compounds of the present invention on programmed cell necrosis at the cellular level, cell types that is closely related to the RIP1 pathway, namely FADD deficient Jurkat cells (human peripheral blood leukemia T cell strain) and L929 cells, were selected. Two different stimulation methods were used: tumor necrosis factor (TNFα) was used alone, or TNFα was used in combination with mitochondria-derived cysteine aspartate activator (SMAC) SM164. Cells viability was calculated by detecting chemiluminescence values, thereby obtaining the biological activity of the compound on the inhibition of programmed cell necrosis.
(§3) Methods: FADD deficient Jurkat cells: FADD deficient Jurkat cells (human peripheral blood leukemia T cell line) were cultured in vitro. After growing to the logarithmic growth phase, the cells were collected, centrifuged at 1000 rpm for 5 min, the supernatant was discarded, and the cell concentration was adjusted to 2.5×10^5/mL. Cells were seeded into 384-well plates, 40 μl per well. 5 μL of SM164 (50 nM) diluted in cell culture medium and 5 μL of each compound were added to the corresponding wells. After pretreatment at 37° C. for 1 h, 5 μL of TNFα (50 ng/mL) diluted in cell culture medium was added to each well of the stimulation group, and 5 μL of the culture medium was added to the control group. The plate was cultured in a cell incubator (37° C., 5% CO2) for 14 h, and […] of Cell Titer-Glo solution was added to each well, then incubated for 30 min at room temperature, and intracellular ATP level was measured by detecting luminescence. The unstimulated DMSO control wells were taken as 100% cell viability. L929 cells: The L929 cells (mouse fibroblasts) were cultured in vitro, digested and diluted to 6.25×10^4/ml, and the cells were seeded into 384-well plates, 40 μl per well. The plate was placed in a cell incubator (37° C., 5% CO2) for 12 hours. 5 μL of SM164 (500 nM) diluted in cell culture medium and 5 μL of each compound were added to the corresponding wells. After pretreatment at 37° C. for 1 h, 5 μL of TNFα (500 ng/mL) diluted in cell culture medium was added to each well of the stimulation group, and 5 μL of the culture medium was added to the control group. After the plate was cultured for 14 h in a cell incubator (37° C., 5% CO2), 15 μl of Cell Titer-Glo solution was added to each well. The plate was incubated at room temperature for 30 min, and intracellular ATP level was measured by detecting luminescence. The unstimulated DMSO control wells were taken as 100% cell viability. EC50 values of the compounds were calculated using Prism Graphpad statistical software.

[2] = Liver microsomal stability test, mouse; assay type: in vitro ADME; conditions: mouse, liver microsomes, mouse liver microsomes, NADPH, 37° C.; read-out: T1/2 (min) Mouse
Source text: (§4) The adopted biological test protocol was: testing the half-life of the compound in human- or mouse-derived liver microsomes.
(§5) Liver microsomes contain many enzymes involved in drug metabolism, especially cytochrome P-450, and therefore it is one of the major tissues involved in drug metabolism in living organisms. There are some correlations between the stability of the compound in liver microsomes and the pharmacogenetic stability thereof in vivo. Therefore, the relative stability of compounds in vivo can be roughly predicted by testing the half-life of different compounds in human- or mouse-derived liver microsomes. The specific methods were as follows:
(§6) Methods: 0.75 μL of 0.5 mM samples (compounds to be tested and control verapamil), 9.38 μL of 20 mg/mL liver microsomes (Human and Mouse) were taken and added to 239.88 μL PBS (on ice), and divided into 30 μL/tube samples respectively. The samples were incubated at 37° C. in a constant temperature water bath for 5 min, and then all samples were taken out. At zero-time, control group was added with 90 μL of ice acetonitrile first, and then added with 15 μL of 3 mM NADPH solution sequentially, and incubated at 37° C. in a constant temperature water bath. The corresponding samples were taken out after 5 min, 10 min, 20 min, 30 min and 60 min, respectively, and quenched by adding 90 μL of ice acetonitrile. All samples were centrifuged at 10000 rpm for 10 min, and the supernatants were taken and placed in a liquid phase vial waiting for LC-MS analysis.

[3] = tested on: FADD−/− Jurkat cells; assay: Inhibition of TNF-induced programmed necrosis of FADD deficient Jurkat cells (Cell Titer-Glo viability); assay type: cell-based; conditions: for EC50: FADD−/− Jurkat cells; for activity of inhibition of programmed necrosis compared with GSK2982772: human FADD-deficient Jurkat cells, TNFα alone or in combination with SM164
Source text: as §1, §2, §3

[4] = Liver microsomal stability test, human; assay type: in vitro ADME; conditions: human, liver microsomes, human liver microsomes, NADPH, 37° C.; read-out: T1/2 (min) Human
Source text: as §4, §5, §6

[5] = stimulated with TNFα + SM164, read-out: EC50 (μM) L929 cells (mouse) TNFα + SM164
[6] = stimulated with TNFα alone, read-out: EC50 (μM) L929 cells (mouse) TNFα
[7] = Homo sapiens, Jurkat, 14 h, stimulated with TNFα + SM164, read-out: EC50 (μM) FADD−/− Jurkat cells (human) TNFα + SM164
[8] = Homo sapiens, Jurkat, stimulated with TNFα alone, read-out: EC50 (μM) FADD−/− Jurkat cells (human) TNFα

SMILES	EC50 [1, 5]	EC50 [1, 6]	half-life at 1 µM [2]	EC50 [3, 7]	EC50 [3, 8]	EC50 ([3]; stimulated with TNFα + SM164, read-out: EC50 (μM) FADD−/− Jurkat cells (human) TNFα + SM164)	EC50 ([3]; stimulated with TNFα alone, read-out: EC50 (μM) FADD−/− Jurkat cells (human) TNFα)	activity of inhibition of programmed necrosis compared with GSK2982772 [3]	half-life at 1 µM [4]
Cn1ncc(C(=O)NCc2ccc(-n3ccc4c(N)ncnc43)cc2)c1Cc1ccccc1 [QY-10-39, N-(4-(4-amino-7H-pyrrolo[2,3-d]pyrimidine-7-yl)benzyl)-5-benzyl-1-methyl-1H-pyrazole-4-carboxamide]	96.1 nM	10 nM	25.7 min	2.95 nM	0.07 nM				
Cn1ncc(C(=O)NCc2ccc(-n3cnc4cc(C(=O)NCCN5CCOCC5)ccc43)cc2)c1Cc1ccccc1 [QY-11-68B]	83.4 nM	20.5 nM	34.7 min	2.96 nM	0.696 nM				
CN(C)CCNC(=O)c1ccc2c(c1)ncn2-c1ccc(CNC(=O)c2cnn(C)c2Cc2ccccc2)cc1 [QY-11-74B]	0.687 nM	0.386 nM		3.73 nM	0.293 nM				
COc1cc2ncnc(-c3ccc(CNC(=O)c4cnn(C)c4Cc4ccccc4)cc3)c2cc1OC [QY-11-75]	> 10000 nM	> 10000 nM		1500 nM	233 nM				
Cn1ncc(C(=O)NCc2ccc(-c3ccnc4[nH]ccc34)cc2)c1Cc1ccccc1 [QY-11-79]	> 10000 nM	> 10000 nM		747 nM	152 nM				
Cn1ncc(C(=O)NCc2ccc(-c3ncnc4[nH]ccc34)cc2)c1Cc1ccccc1 [QY-11-80]	3460 nM	1970 nM		482 nM	35 nM				
COc1ccc2c(c1)ncn2-c1ccc(CNC(=O)c2cnn(C)c2Cc2ccccc2)cc1 [QY-11-102A]	0.0793 nM	0.00513 nM				0.0649 nM	0.00168 nM		
COc1ccc2ncn(-c3ccc(CNC(=O)c4cnn(C)c4Cc4ccccc4)cc3)c2c1 [QY-11-102B]	0.424 nM	0.0278 nM		0.306 nM	0.0133 nM				
CC(NC(=O)c1cnn(C)c1Cc1ccccc1)c1ccc(-n2cnc3c(N)ncnc32)cc1 (stereo not shown) [QY-12-31]	0.569 nM	0.356 nM		0.254 nM	0.0967 nM				
CNC(=O)c1ccc2c(c1)ncn2-c1ccc(CNC(=O)c2ccc(F)n2Cc2ccccc2)cc1 [QY-12-47]	34.4 nM	6 nM		17.4 nM	1.74 nM				
N#Cc1ccc(C(=O)NCc2ccc(-n3cnc4c(N)ncnc43)cc2)n1Cc1ccccc1 [QY-12-51]	3770 nM	875 nM		1860 nM	214 nM				
CC(c1ccc(-n2cnc3c(N)ncnc32)cc1)N1CCc2nn(C)c(Cc3ccccc3)c2C1=O (stereo not shown) [QY-12-90]	42.7 nM	2.41 nM		0.813 nM	0.13 nM				
C[C@@H](NC(=O)c1cnn(C)c1Cc1ccccc1)c1ccc(-n2cnc3c(N)ncnc32)cc1 [QY-12-97]	219 nM	51.9 nM		132 nM	36.1 nM				
Cn1nc(Cl)c(C(=O)NCc2ccc(-n3cnc4c(N)ncnc43)cc2)c1Cc1ccccc1 [QY-12-100]	4.63 nM	0.458 nM		0.734 nM	0.172 nM			stronger activity	
Cn1ncc(C(=O)NC(C)(C)c2ccc(-n3cnc4c(N)ncnc43)cc2)c1Cc1ccccc1 [QY-12-102]	6960 nM	550 nM		28.5 nM	7.52 nM				
C[C@H](NC(=O)c1c(Cl)nn(C)c1Cc1ccccc1)c1ccc(-n2cnc3c(N)ncnc32)cc1 [QY-13-29]	0.462 nM	0.317 nM		0.318 nM	0.0916 nM				
C[C@H](NC(=O)c1cnn(C)c1Cc1ccccc1)c1ccc(-n2cnc3c(N)ncnc32)cc1 [QY-13-31]	0.553 nM	0.437 nM		0.305 nM	0.084 nM			stronger activity	
C[C@@H](c1ccc(-n2cnc3c(N)ncnc32)cc1)N1CCc2nn(C)c(Cc3ccccc3)c2C1=O [QY-13-33]	3.02 nM	1.32 nM		2.85 nM	0.296 nM			stronger activity	
Cn1nnc(C(=O)NCc2ccc(-n3cnc4cc(C#N)ccc43)cc2)c1Cc1ccccc1 [QY-15-59]	0.001 nM	0.001 nM			0.00767 nM			stronger activity	
CNC(=O)c1ccc2c(ccn2-c2ccc(CNC(=O)c3ncc(Cc4ccccc4)o3)cc2)c1 [XHJ-2-88]	3980 nM	831 nM		380 nM	70.1 nM				
CCCn1nc(C(=O)NCc2ccc(-n3cnc4cc(C(=O)NC)ccc43)cc2)cc1Cc1ccccc1 [XHJ-4-48]	> 10000 nM	3010 nM		738 nM	109 nM				
CNC(=O)c1ccc2c(c1)ncn2-c1ccc(CNC(=O)c2cn(Cc3ccccc3)nn2)cc1 [ZSQ-13-35]	> 10000 nM	> 10000 nM		1590 nM	233 nM				
CNC(=O)c1ccc2c(c1)ncn2-c1ccc(CNC(=O)c2n[nH]c(Cc3ccccc3)n2)cc1 [ZSQ-13-46]	> 10000 nM	> 10000 nM		> 10000 nM	> 10000 nM				
Cn1nc(C(=O)NCc2ccc(-n3ncc4c(N)ncnc43)cc2)cc1Cc1ccccc1 [ZSQ-15-48]	> 10000 nM	6550 nM		451 nM	70.9 nM				
CNC(=O)c1ccc2c(ccn2-c2ccc(CNC(=O)c3cc(Cc4ccccc4)n(C)n3)cc2)c1 [ZSQ-15-68]	1800 nM	610 nM		670 nM	115 nM				
Cn1nc(C(=O)NCc2ccc(-n3ccc4c(N)nccc43)cc2)cc1Cc1ccccc1 [ZSQ-16-3]	> 10000 nM	2320 nM		> 10000 nM	361 nM				
Nc1ncnc2c1ncn2-c1ccc(CNC(=O)c2cn(Cc3ccccc3)cn2)cc1 [ZSQ-21-13]			99 min	39 nM	42.7 nM				577 min
Nc1ncnc2c1ncn2-c1ccc(CNC(=O)c2ccc(F)n2Cc2ccccc2)cc1 [ZSQ-21-30]	7.41 nM	0.916 nM		1.6 nM	0.0853 nM				
Cn1nc2c(c1Cc1ccccc1)C(=O)N(Cc1ccc(-n3cnc4c(N)ncnc43)cc1)CC2 [ZSQ-22-96]	38.6 nM	8.38 nM		2.26 nM	0.203 nM				
